# Results as given in patent US6737383B1, “Herbicidal oxadiazolidines” (priority 1999, dated 2004).
# Legend:
# duck salad = experiment: Test B flood test duck salad; format: in vivo, Heteranthera limosa
# Summary of the method: (§1)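 Plants were grown to the 2-leaf stage before treatment with test chemical, then held in a greenhouse for twelve to sixteen days. Injury was visually rated against untreated controls on a 0–10 scale, where 0 is no effect and 10 is complete control.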
# bamyardgrass = experiment: Test B flood test barnyardgrass; format: in vivo, Echinochloa crus-galli
# Summary of the method: as §1
# bedstraw = experiment: Test B pre/postemergence bedstraw; format: in vivo, Galium aparine; conditions: Preemergence; for Bedstraw plant response rating: scale 0 to 10, 0 is no effect, 10 is complete control
# Summary of the method: (§2)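 Test chemicals in a non-phytotoxic solvent mixture with surfactant were sprayed preemergence onto planted seeds and postemergence onto plants 2 to 18 cm tall (1- to 4-leaf stage). After twelve to sixteen days in a greenhouse, injury was visually rated against untreated controls from 0 (no effect) to 10 (complete control).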
# wild oat = experiment: Test B pre/postemergence wild oat; format: in vivo, Avena fatua
# Summary of the method: as §2
# cocklebur = experiment: Test B pre/postemergence cocklebur; format: in vivo, Xanthium strumarium
# Summary of the method: as §2
# crabgrass = experiment: Test B pre/postemergence crabgrass; format: in vivo, Digitaria sanguinalis
# Summary of the method: as §2
# blackgrass = experiment: Test B pre/postemergence blackgrass; format: in vivo, Alopecurus myosuroides
# Summary of the method: as §2
# purple nutsedge = experiment: Test B pre/postemergence purple nutsedge; format: in vivo, Cyperus rotundus
# Summary of the method: as §2
# morningglory = experiment: Test B pre/postemergence morningglory; format: in vivo, Ipomoea hederacea
# Summary of the method: as §2
# soybean = experiment: Test B pre/postemergence soybean; format: in vivo, Glycine max
# Summary of the method: as §2
# velvetleaf = experiment: Test B pre/postemergence velvetleaf; format: in vivo, Abutilon theophrasti
# Summary of the method: as §2
# rice = experiment: Test B flood test rice; format: in vivo, Oryza sativa
# Summary of the method: as §1
# smallflower flatsedge = experiment: Test B flood test smallflower flatsedge; format: in vivo, Cyperus difformis
# Summary of the method: as §1
# corn = experiment: Test B pre/postemergence corn; format: in vivo, Zea mays
# Summary of the method: as §2
# surinam grass = experiment: Test B pre/postemergence surinam grass; format: in vivo, Brachiaria decumbens
# Summary of the method: as §2
# pigweed = experiment: Test B pre/postemergence pigweed; format: in vivo, Amaranthus retroflexus
# Summary of the method: as §2
# giant foxtail = experiment: Test B pre/postemergence giant foxtail; format: in vivo, Setaria faberii
# Summary of the method: as §2
# wheat = experiment: Test B pre/postemergence wheat; format: in vivo, Triticum aestivum
# Summary of the method: as §2
# sugar beet = experiment: Test B pre/postemergence sugar beet; format: in vivo, Beta vulgaris
# Summary of the method: as §2
# rape = experiment: Test B pre/postemergence rape; format: in vivo, Brassica napus
# Summary of the method: as §2
# [1] = Rate 62 g/ha, flood test species, Pre-emergence, visual evaluation after twelve to sixteen days
# [2] = Rate 125 g/ha, under heading Pre-emergence, flood test species, visual evaluation after twelve to sixteen days
# [3] = Rate 250 g/ha, Pre-emergence (flood test species), scale 0 to 10, 0 is no effect, 10 is complete control
# [4] = Rate 500 g/ha, Pre-emergence section of Table B, 0 to 10 scale (0 no effect, 10 complete control)
# [5] = Postemergence, Rate 125 g/ha, scale 0 to 10, 0 is no effect, 10 is complete control
# [6] = Postemergence, Rate 500 g/ha, scale 0 to 10, 0 is no effect, 10 is complete control
# [7] = Preemergence, Rate 62 g/ha, scale of 0 to 10 where 0 is no effect and 10 is complete control
# [8] = Preemergence, Rate 125 g/ha, scale 0 to 10, 0 is no effect, 10 is complete control
# [9] = Preemergence, Rate 500 g/ha, scale of 0 to 10 where 0 is no effect and 10 is complete control
# [10] = Rate 62 g/ha, Postemergence, scale 0 to 10 (0 no effect, 10 complete control)
# [11] = Postemergence, Rate 250 g/ha, scale 0 to 10
# [12] = Preemergence, Rate 250 g/ha, scale 0 to 10, 0 is no effect, 10 is complete control
structure (smiles),measurement,setting,value
CC(C)N(C(=O)n1oc(=O)n(CCCNC(=O)CCl)c1=O)c1ccccc1 [Compound 493],"Plant response rating, Ducksalad (0 to 10 scale, 0 is no effect, 10 is complete control)",duck salad; [1],0
same,"Ducksalad plant response rating (0 to 10 scale, 0 is no effect, 10 is complete control)",duck salad; [2],0
same,Ducksalad plant response rating,duck salad; [3],0
same,Ducksalad plant response rating,duck salad; [4],0
same,"Plant response rating, Barnyardgrass (0 to 10 scale, 0 is no effect, 10 is complete control)",bamyardgrass; [1],0
same,"Barnyardgrass plant response rating (0 to 10 scale, 0 is no effect, 10 is complete control)",bamyardgrass; [2],0
same,Barnyardgrass plant response rating,bamyardgrass; [3],0
same,Barnyardgrass plant response rating,bamyardgrass; [4],0
same,"Plant response rating, Bedstraw","bedstraw; Rate 62 g/ha, scale of 0 to 10 where 0 is no effect and 10 is complete control",0
same,Bedstraw plant response rating,bedstraw; Rate 125 g/ha,0
same,Bedstraw plant response rating,bedstraw; Rate 250 g/ha,0
same,Bedstraw plant response rating,bedstraw; Rate 500 g/ha,0
same,Wild oats plant response rating,wild oat; [5],0
same,"Plant response rating, Wild oats",wild oat; [6],0
same,"Plant response rating, Wild oats",wild oat; [7],0
same,Wild oats plant response rating,wild oat; [8],0
same,Wild oats plant response rating,wild oat; [9],0
same,Wild oats plant response rating,wild oat; [10],0
same,Cocklebur plant response rating,cocklebur; [5],0
same,Cocklebur plant response rating,cocklebur; [11],0
same,"Plant response rating, Cocklebur",cocklebur; [6],0
same,"Plant response rating, Cocklebur",cocklebur; [7],0
same,Cocklebur plant response rating,cocklebur; [8],0
same,Cocklebur plant response rating,cocklebur; [12],0
same,Cocklebur plant response rating,cocklebur; [9],0
same,Cocklebur plant response rating,cocklebur; [10],0
same,Crabgrass plant response rating,crabgrass; [5],0
same,Crabgrass plant response rating,crabgrass; [11],0
same,"Plant response rating, Crabgrass",crabgrass; [6],4
same,"Plant response rating, Crabgrass",crabgrass; [7],0
same,Crabgrass plant response rating,crabgrass; [8],0
same,Crabgrass plant response rating,crabgrass; [9],2
same,Crabgrass plant response rating,crabgrass; [10],0
same,Blackgrass plant response rating,blackgrass; [5],0
same,Blackgrass plant response rating,blackgrass; [11],0
same,"Plant response rating, Blackgrass",blackgrass; [6],0
same,"Plant response rating, Blackgrass",blackgrass; [7],0
same,Blackgrass plant response rating,blackgrass; [8],0
same,Blackgrass plant response rating,blackgrass; [12],0
same,Blackgrass plant response rating,blackgrass; [9],0
same,Blackgrass plant response rating,blackgrass; [10],0
same,Nutsedge plant response rating,purple nutsedge; [5],0
same,"Plant response rating, Nutsedge",purple nutsedge; [6],0
same,Nutsedge plant response rating,purple nutsedge; [8],0
same,Nutsedge plant response rating,purple nutsedge; [9],0
same,Nutsedge plant response rating,purple nutsedge; [10],0
same,Morningglory plant response rating,morningglory; [5],0
same,"Plant response rating, Morningglory",morningglory; [6],0
same,"Plant response rating, Morningglory",morningglory; [7],0
same,Morningglory plant response rating,morningglory; [8],0
same,Morningglory plant response rating,morningglory; [9],0
same,Morningglory plant response rating,morningglory; [10],0
same,Soybean plant response rating,soybean; [5],0
same,"Plant response rating, Soybean",soybean; [6],2
same,"Plant response rating, Soybean",soybean; [7],0
same,Soybean plant response rating,soybean; [8],0
same,Soybean plant response rating,soybean; [9],0
same,Velvetleaf plant response rating,velvetleaf; [5],0
same,"Plant response rating, Velvetleaf",velvetleaf; [6],0
same,"Plant response rating, Velvetleaf",velvetleaf; [7],0
same,Velvetleaf plant response rating,velvetleaf; [8],0
same,Velvetleaf plant response rating,velvetleaf; [9],0
same,Velvetleaf plant response rating,velvetleaf; [10],0
same,"Plant response rating, Rice (0 to 10 scale, 0 is no effect, 10 is complete control)",rice; [1],0
same,"Rice plant response rating (0 to 10 scale, 0 is no effect, 10 is complete control)",rice; [2],0
same,Rice plant response rating,rice; [3],0
same,Rice plant response rating,rice; [4],0
same,"Plant response rating, S. Flatsedge (0 to 10 scale, 0 is no effect, 10 is complete control)",smallflower flatsedge; [1],0
same,"S. Flatsedge plant response rating (0 to 10 scale, 0 is no effect, 10 is complete control)",smallflower flatsedge; [2],0
same,S. Flatsedge plant response rating,smallflower flatsedge; [3],0
same,S. Flatsedge plant response rating,smallflower flatsedge; [4],0
same,Corn plant response rating,corn; [5],0
same,Corn plant response rating,corn; [11],0
same,"Plant response rating, Corn",corn; [6],0
same,"Plant response rating, Corn",corn; [7],0
same,Corn plant response rating,corn; [8],0
same,Corn plant response rating,corn; [9],0
same,Corn plant response rating,corn; [10],0
same,B. signalgrass plant response rating,surinam grass; [5],0
same,B. signalgrass plant response rating,"surinam grass; Postemergence, Rate 250 g/ha, scale 0 to 10, 0 no effect, 10 complete control",0
same,"Plant response rating, B. signalgrass",surinam grass; [6],0
same,"Plant response rating, B. signalgrass",surinam grass; [7],0
same,B. signalgrass plant response rating,surinam grass; [8],0
same,B. signalgrass plant response rating,surinam grass; [12],0
same,B. signalgrass plant response rating,"surinam grass; Preemergence, Rate 500 g/ha, scale 0 to 10, 0 is no effect, 10 is complete control",0
same,B. signalgrass plant response rating,surinam grass; [10],0
same,Redroot pigweed plant response rating,pigweed; [5],0
same,"Plant response rating, Redroot pigweed",pigweed; [6],0
same,"Plant response rating, Redroot pigweed",pigweed; [7],0
same,Redroot pigweed plant response rating,pigweed; [8],0
same,Redroot pigweed plant response rating,pigweed; [9],0
same,Redroot pigweed plant response rating,pigweed; [10],0
same,Giant foxtail plant response rating,giant foxtail; [5],0
same,"Plant response rating, Giant foxtail",giant foxtail; [6],0
same,"Plant response rating, Giant foxtail",giant foxtail; [7],3
same,Giant foxtail plant response rating,giant foxtail; [8],3
same,Giant foxtail plant response rating,giant foxtail; [9],10
same,Giant foxtail plant response rating,giant foxtail; [10],0
same,Wheat plant response rating,wheat; [5],0
same,"Plant response rating, Wheat",wheat; [6],0
same,"Plant response rating, Wheat",wheat; [7],0
same,Wheat plant response rating,wheat; [8],0
same,Wheat plant response rating,wheat; [9],0
same,Wheat plant response rating,wheat; [10],0
same,Sugarbeets plant response rating,sugar beet; [5],0
same,"Plant response rating, Sugarbeets",sugar beet; [6],0
same,"Plant response rating, Sugarbeets",sugar beet; [7],0
same,Sugarbeets plant response rating,sugar beet; [8],0
same,Sugarbeets plant response rating,sugar beet; [9],0
same,Sugarbeets plant response rating,sugar beet; [10],0
same,Rape plant response rating,rape; [5],0
same,"Plant response rating, Rape",rape; [6],0
same,"Plant response rating, Rape",rape; [7],0
same,Rape plant response rating,rape; [8],0
same,Rape plant response rating,rape; [9],0
same,Rape plant response rating,rape; [10],0
